One compound from ChEMBL document CHEMBL5518230, “Identification of a Novel Selective CDK9 Inhibitor for the Treatment of CRC: Design, Synthesis, and Biological Activity Evaluation” (J Med Chem, 2024) can be followed below.

Assay [1] concerns the target Cyclin-dependent kinase 2/cyclin E1 (Homo sapiens) (UniProt P24864+P24941). Put plainly: Inhibition of CDK2/Cyclin E1 (unknown origin) at 100 nM. The class given is protein-complex assay.
A further assay deals with CDK9/cyclin T1 (Homo sapiens, UniProt P50750). Kind of assay: Inhibition of CDK9/Cyclin T1 (unknown origin) using PDKtide substrate incubated for 60 mins by ADP-Glo kinase assay. Format: protein-complex assay. In general terms: ADP-Glo first removes unused ATP, then detects ADP through luciferase.
CDK9/cyclin T1, sequence (O60563 whole entry): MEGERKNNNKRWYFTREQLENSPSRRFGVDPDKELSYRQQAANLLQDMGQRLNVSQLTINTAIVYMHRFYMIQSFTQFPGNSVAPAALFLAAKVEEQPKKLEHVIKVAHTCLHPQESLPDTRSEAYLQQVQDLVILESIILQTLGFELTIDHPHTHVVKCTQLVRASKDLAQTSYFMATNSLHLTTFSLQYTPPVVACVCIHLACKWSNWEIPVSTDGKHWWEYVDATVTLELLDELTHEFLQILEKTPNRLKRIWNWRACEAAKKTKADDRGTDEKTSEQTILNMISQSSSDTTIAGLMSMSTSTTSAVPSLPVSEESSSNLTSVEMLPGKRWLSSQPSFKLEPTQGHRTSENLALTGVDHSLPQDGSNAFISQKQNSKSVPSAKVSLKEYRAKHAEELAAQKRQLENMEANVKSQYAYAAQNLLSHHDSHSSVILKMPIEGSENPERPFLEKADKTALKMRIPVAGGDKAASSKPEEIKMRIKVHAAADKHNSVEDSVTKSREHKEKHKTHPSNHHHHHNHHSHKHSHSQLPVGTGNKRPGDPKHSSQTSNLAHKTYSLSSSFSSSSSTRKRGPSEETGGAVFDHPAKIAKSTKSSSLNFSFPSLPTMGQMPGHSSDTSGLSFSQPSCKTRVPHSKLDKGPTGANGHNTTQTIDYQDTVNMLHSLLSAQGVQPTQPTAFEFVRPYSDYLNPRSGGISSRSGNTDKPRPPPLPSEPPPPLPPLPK
CDK9/cyclin T1, sequence (P50750 whole entry): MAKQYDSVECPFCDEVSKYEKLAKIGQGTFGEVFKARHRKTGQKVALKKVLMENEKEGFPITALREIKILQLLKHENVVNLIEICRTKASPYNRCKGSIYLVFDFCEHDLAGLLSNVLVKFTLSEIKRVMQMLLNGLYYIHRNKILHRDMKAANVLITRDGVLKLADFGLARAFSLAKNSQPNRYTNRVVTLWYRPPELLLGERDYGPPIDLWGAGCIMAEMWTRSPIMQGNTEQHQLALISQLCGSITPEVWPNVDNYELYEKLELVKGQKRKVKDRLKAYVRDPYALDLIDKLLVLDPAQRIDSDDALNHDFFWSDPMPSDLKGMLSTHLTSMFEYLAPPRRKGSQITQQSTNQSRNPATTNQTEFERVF
Assay [2] addresses CDK2/Cyclin A2 (Homo sapiens) (UniProt P24941+P20248). Kind of assay: Inhibition of CDK2/Cyclin A2 (unknown origin) at 100 nM. Format: protein-complex assay.
The species entered for a further assay is Homo sapiens. Put plainly: Inhibition of CDK1/Cyclin A2 (unknown origin) at 100 nM.
In another assay the test system is HT-29. Put plainly: Growth inhibition of human HT-29 cells incubated for 48 hrs by CCK-8 assay. The class given is functional. On the technique in general: Tetrazolium assays rely on reduction of a dye to a coloured formazan, in cell work by metabolically active cells.
In assay [3] the target is CDK1/Cyclin E (Homo sapiens) (UniProt P06493+P24864). Kind of assay: Inhibition of CDK1/Cyclin E1 (unknown origin) at 100 nM. The class given is protein-complex assay.
CDK1/Cyclin E (Homo sapiens), sequence (P06493 whole entry, looked up): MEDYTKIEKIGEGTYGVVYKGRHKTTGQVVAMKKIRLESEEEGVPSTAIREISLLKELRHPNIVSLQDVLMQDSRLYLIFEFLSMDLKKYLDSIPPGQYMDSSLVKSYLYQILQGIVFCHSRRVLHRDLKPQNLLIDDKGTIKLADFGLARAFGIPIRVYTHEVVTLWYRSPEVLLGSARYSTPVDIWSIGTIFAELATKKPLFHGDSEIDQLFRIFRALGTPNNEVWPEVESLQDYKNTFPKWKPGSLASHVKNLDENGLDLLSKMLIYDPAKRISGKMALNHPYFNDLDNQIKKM
CDK1/Cyclin E (Homo sapiens), sequence (P24864 whole entry, looked up): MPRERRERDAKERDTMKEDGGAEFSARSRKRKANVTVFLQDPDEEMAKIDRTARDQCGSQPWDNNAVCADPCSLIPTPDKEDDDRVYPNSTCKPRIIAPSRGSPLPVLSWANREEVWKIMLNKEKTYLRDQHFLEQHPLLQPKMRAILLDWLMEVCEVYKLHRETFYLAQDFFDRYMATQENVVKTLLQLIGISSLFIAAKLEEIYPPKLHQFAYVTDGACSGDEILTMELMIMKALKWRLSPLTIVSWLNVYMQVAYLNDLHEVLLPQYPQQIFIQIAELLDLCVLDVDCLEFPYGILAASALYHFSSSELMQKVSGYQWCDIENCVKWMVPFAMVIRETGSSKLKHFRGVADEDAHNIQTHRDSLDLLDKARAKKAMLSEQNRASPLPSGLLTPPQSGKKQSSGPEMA
A further assay deals with HCT-116. Kind of assay: Growth inhibition of human HCT-116 cells incubated for 48 hrs by CCK-8 assay. Format: functional.

The term IC50 denotes the concentration at which inhibition is half-maximal. Broadly, the GI50 is the concentration at which growth is held to half of that of the control. A higher GI50 goes with less potent growth inhibition.

Calls of active or inactive are those of the source. The calls are words filed in the database; no cut-off is given here.

Regarding `CCN1CCN(C(=O)c2ccc(Nc3cc(-c4ccc5nnn(C(C)C)c5c4)ccn3)nc2)CC1`, the inhibition entry (in assay [1]; in assay [2]; in the assay listed under Homo sapiens; in assay [3]) was “Active” in each case. This compound returned an IC50 on CDK9/cyclin T1 of 3.8 nM. Besides, the concentration for 50% growth inhibition (GI50) with HT-29 worked out at 50 nM; in the assay on HCT-116, 60 nM.
